Reference: patent publication US20100130738A1 (priority 2007, published 2010)

What was measured:
[1] = target: T1, PDE3A catalytic domain (PDE3Acat) (Homo sapiens, UniProt Q14432); assay: Phosphodiesterase inhibitory activity, recombinant PDE3Acat, [3H]cAMP; assay type: biochemical; conditions: 30° C. 20 minutes, read-out: IC50 (μmol/L) PDE3
T1 construct: isolate the cDNA of a PDE3A catalytic domain; made in house; host or cells: Sf9 insect cells (baculovirus, Bac-to-Bac / Gateway)

[2] = target: T2, PDE4Bcat (Homo sapiens, UniProt Q07343); assay: Phosphodiesterase inhibitory activity, recombinant PDE4Bcat, [3H]cAMP; assay type: biochemical; conditions: 30° C. 20 minutes, read-out: IC50 (μmol/L) PDE4
T2 construct: made in house; host or cells: Sf9 insect cells (baculovirus, Bac-to-Bac / Gateway)
T2 sequence (Q07343 330-659 limits assumed): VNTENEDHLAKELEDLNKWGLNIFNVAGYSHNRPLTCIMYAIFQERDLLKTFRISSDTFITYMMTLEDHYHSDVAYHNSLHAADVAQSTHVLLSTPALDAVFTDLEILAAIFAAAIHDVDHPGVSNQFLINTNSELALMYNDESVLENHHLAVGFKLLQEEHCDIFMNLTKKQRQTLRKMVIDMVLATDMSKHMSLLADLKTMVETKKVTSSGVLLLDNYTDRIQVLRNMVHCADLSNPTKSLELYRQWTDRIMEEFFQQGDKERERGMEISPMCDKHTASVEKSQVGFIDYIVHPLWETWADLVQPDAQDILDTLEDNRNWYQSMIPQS

T1 sequence (Q14432 674-1093 limits assumed): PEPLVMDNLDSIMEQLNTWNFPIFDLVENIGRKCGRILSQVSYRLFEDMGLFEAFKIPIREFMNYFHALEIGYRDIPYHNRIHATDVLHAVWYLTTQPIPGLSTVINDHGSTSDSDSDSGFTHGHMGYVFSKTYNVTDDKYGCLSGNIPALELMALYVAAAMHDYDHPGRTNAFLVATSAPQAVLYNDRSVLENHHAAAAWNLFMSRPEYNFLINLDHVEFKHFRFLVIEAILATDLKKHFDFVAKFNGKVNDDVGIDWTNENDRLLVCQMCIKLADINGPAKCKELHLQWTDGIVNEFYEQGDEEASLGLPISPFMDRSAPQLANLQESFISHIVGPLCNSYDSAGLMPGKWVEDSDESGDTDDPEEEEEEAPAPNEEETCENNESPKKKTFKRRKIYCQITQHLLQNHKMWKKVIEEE

IC50 [1] [µmol/L]	IC50 [2] [µmol/L]	melting point [°C]	SMILES
< 0.01	0.01 to 0.1	137 to 138	COc1ccc(C2=NN(CCCCOc3ccc(C4=NNC(=O)CC4C)c(F)c3F)C(=O)C2(C)C)c2cc(C(F)(F)F)sc12 (stereo not drawn) [Example 224, 2-[4-[2,3-Difluoro-4-(4-methyl-6-oxo-1,4,5,6-tetrahydropyridazin-3-yl)phenoxy]butyl]-5-(7-methoxy-2-trifluoromethylbenzo[b]thiophen-4-yl)-4,4-dimethyl-2,4-dihydro-pyrazol-3-one]
0.01 to 0.1	0.01 to 0.1	167 to 168	COc1ccc(C2=NN(CCCCOc3ccc(C4=NNC(=O)C4(C)C)c(F)c3F)C(=O)C2(C)C)c2cc(C(F)(F)F)sc12 [Example 223, 2-[4-[2,3-Difluoro-4-(4,4-dimethyl-5-oxo-4,5-dihydro-1H-pyrazol-3-yl)phenoxy]butyl]-5-(7-methoxy-2-trifluoromethylbenzo[b]thiophen-4-yl)-4,4-dimethyl-2,4-dihydro-pyrazol-3-one]
< 0.01	0.1 to 1	176 to 177	COc1ccc(C2=NN(CCCCOc3ccc(C4=NNC(=O)CC4)c(F)c3F)C(=O)C2(C)C)c2cc(C(F)(F)F)sc12 [Example 222, 2-[4-[2,3-Difluoro-4-(6-oxo-1,4,5,6-tetrahydropyridazin-3-yl)phenoxy]butyl]-5-(7-methoxy-2-trifluoromethylbenzo[b]thiophen-4-yl)-4,4-dimethyl-2,4-dihydro-pyrazol-3-one]
